This note sets out measurements from PubChem BioAssay (NCI).

Some test systems named below: SNB-75 CNS; 786-0 renal; DU-145 prostate; UO-31 renal; BT-549 breast; HL-60(TB) leukemia; KM12 colon; HCT-116 colon; MCF7 breast; P388/ADR leukemia; M19-MEL melanoma.
Holding throughout (test): NCI tumour cell line growth inhibition, 48 h

Structures are written as SMILES. Several values for one entry are separate records, joined by “and”; a condition that tells them apart may be missing. Equal values may be shown once.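 Values below derive from 48-hour exposures of cells grown in 96-well plates, with endpoints linearly interpolated between the two concentrations bracketing the appropriate inhibition level. At the GI50, growth is halved. TGI marks complete inhibition of growth.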

As for `Cc1cc(O)c2c(c1O)C(=O)c1cccc(O)c1C2=O`, the TGI in the test on SNB-75 CNS, in the test on 786-0 renal, in the test on DU-145 prostate, in the test with UO-31 renal, in the test on BT-549 breast and in the test on HL-60(TB) leukemia was more than 100 µM in each case. Further, the TGI with KM12 colon, in the test on HCT-116 colon and in the test on MCF7 breast was more than 100 µM throughout.

Take `O=[N+]([O-])c1ccc2nc(Cl)n[n+]([O-])c2c1`: the TGI came to 28.2 µM in the test on SNB-75 CNS; 22.8 µM in the test on 786-0 renal; 31.7 µM in the test with DU-145 prostate; 30.7 µM in the test on UO-31 renal; 29.7 µM in the test with BT-549 breast; 1.36 µM in the test on HL-60(TB) leukemia. In addition, the TGI in the test on KM12 colon amounted to 51.8 µM; in the test with HCT-116 colon, 25.8 µM; with MCF7 breast it was 20 µM.

Take `CC(=O)N1N=C(c2ccc3ccccc3c2O)CC1c1cccs1` (configuration not stated): the TGI is more than 100 µM in the test with SNB-75 CNS; more than 100 µM in the test on DU-145 prostate; 64.1 µM in the test on UO-31 renal; 83.9 µM with BT-549 breast; 46.4 µM in the test on KM12 colon; more than 100 µM with HCT-116 colon. In the test on MCF7 breast, this molecule registered a TGI of more than 100 µM.

In the case of `C(/C=C/c1ccccc1)=Nc1ccc2c(c1)Cc1ccccc1-2`, the TGI with SNB-75 CNS, in the test with 786-0 renal, in the test on DU-145 prostate, in the test on UO-31 renal, with BT-549 breast and in the test with KM12 colon was more than 100 µM in each case. In addition, the TGI in the test on HCT-116 colon was more than 100 µM.

Consider `C=C(C)C(=O)O[C@H]1CC2=C[C@@H](C[C@@]3(C)O[C@@H]3[C@H]3OC(=O)C(=C)[C@@H]31)OC2=O`, for which the TGI in the test with SNB-75 CNS was 18.4 µM; in the test with UO-31 renal, 13.8 µM; in the test with P388/ADR leukemia it was 11.1 µM; with M19-MEL melanoma, 6.52 µM; in the test with HL-60(TB) leukemia it was 1.12 µM; in the test with KM12 colon, 8.6 µM. Also, the TGI in the test on HCT-116 colon turned out to be 4.61 µM; in the test on MCF7 breast, 5.42 µM. Further, the GI50 in the test on HCT-116 colon is 1.4 µM.

As for `CCOC1=NC(C(F)(F)F)(C(F)(F)F)N=C(N2CCOCC2)O1`, the TGI in the test on SNB-75 CNS, with DU-145 prostate, in the test on UO-31 renal, in the test with BT-549 breast, in the test with HL-60(TB) leukemia and in the test on KM12 colon was more than 100 µM throughout. The TGI in the test with HCT-116 colon and in the test with MCF7 breast was more than 100 µM throughout.

As to `COc1cc(C2S/C(=C/c3ccccc3)C(=O)N2c2ccc(NC(C)=O)cc2)cc(OC)c1OC` (configuration not stated), the TGI in the test with SNB-75 CNS was 37.5 µM; with UO-31 renal, more than 100 µM; in the test on BT-549 breast, 65.4 µM; in the test on KM12 colon, 31 µM; with HCT-116 colon, 26.1 µM; in the test on MCF7 breast, more than 100 µM.

As for `COc1ccc(-c2csc(=Nc3ccccc3)n2CCCN(C)C)cc1`, the TGI is 19.3 µM with SNB-75 CNS; 44.9 µM in the test with UO-31 renal; 37.3 µM in the test on BT-549 breast; more than 100 µM with HL-60(TB) leukemia; 29.5 µM in the test on KM12 colon.

For the molecule `NC(CSCc1ccc(I)cc1)C(=O)O` (configuration not stated), the TGI in the test on SNB-75 CNS, in the test on 786-0 renal, in the test on DU-145 prostate, in the test with UO-31 renal, in the test on BT-549 breast and in the test with HL-60(TB) leukemia was more than 100 µM throughout. Besides, the TGI in the test on KM12 colon, in the test with HCT-116 colon and with MCF7 breast was more than 100 µM in each case.

In the case of `c1ccc(N2N=C(c3cccc(Nc4ccncc4)c3)CC2c2ccc3c(c2)OCO3)cc1` (configuration not stated), the GI50 in the test with SNB-75 CNS is 1.47 µM; with DU-145 prostate it was 1.85 µM; in the test on UO-31 renal, 1.4 µM; with BT-549 breast, 1.83 µM; in the test on HL-60(TB) leukemia, 1.77 µM; with KM12 colon, 1.51 µM. Besides, the GI50 in the test on MCF7 breast is 1.74 µM. Moreover, the TGI came out at 3.74 µM in the test with SNB-75 CNS; 3.66 µM in the test on DU-145 prostate; 2.84 µM in the test with UO-31 renal; 4.06 µM in the test on BT-549 breast; 3.69 µM in the test on HL-60(TB) leukemia; 3.18 µM with KM12 colon. The molecule also yielded a TGI in the test on MCF7 breast of 4.25 µM.

Take `Cc1nc2c(c(=O)[nH]1)S/C(=C(/C#N)c1nc3ccccc3[nH]1)N2c1ccccc1`: the TGI in the test with SNB-75 CNS, with UO-31 renal, in the test on M19-MEL melanoma, in the test with HL-60(TB) leukemia, in the test on KM12 colon and in the test on HCT-116 colon was more than 100 µM each time.

Take `Cc1c(C)c(C)c(CC2(C)CSC2)c(CC2(C)CSC2)c1C`: the TGI in the test with SNB-75 CNS, with 786-0 renal, in the test with DU-145 prostate, in the test with UO-31 renal, in the test on BT-549 breast and with HL-60(TB) leukemia was more than 100 µM throughout. Further, the TGI with HCT-116 colon and in the test with MCF7 breast was more than 100 µM in each case.

In the case of `CC[C@@H]1ON(C)[C@H]2CN(C)C(=O)[C@@H]12`, the TGI in the test on DU-145 prostate, in the test on UO-31 renal, in the test with HL-60(TB) leukemia, in the test with HCT-116 colon and in the test on MCF7 breast was more than 100 µM throughout.

As for `CCN1CCCC(C#N)(c2ccccc2)CC1` (configuration not stated), the TGI in the test on SNB-75 CNS, in the test with 786-0 renal, in the test on DU-145 prostate, in the test with UO-31 renal, with HL-60(TB) leukemia and in the test on KM12 colon was more than 100 µM in each case. In the test on HCT-116 colon, the TGI was more than 100 µM.

Turning to `CN(C)CCCC1c2ccccc2Oc2ccc(C(F)(F)F)cc21` (configuration not stated), the TGI in the test on SNB-75 CNS is 27.7 µM; with 786-0 renal it was 26.7 µM; in the test on DU-145 prostate, 31.1 µM; with UO-31 renal, 6.49 µM; in the test on BT-549 breast, 28.2 µM; in the test with HL-60(TB) leukemia, 28.1 µM. The figures for the TGI with KM12 colon, with HCT-116 colon and in the test with MCF7 breast were 28.4 µM, 25.6 µM and 26.6 µM, respectively.

As for `COc1ccc2c(c1O)-c1cc(O)cc3c1[C@@H](C2)N(C)CC3`, the TGI in the test with SNB-75 CNS is 124 µM; with UO-31 renal it was 103 µM; in the test on P388/ADR leukemia, 180 µM; in the test on M19-MEL melanoma, 128 µM; in the test on HL-60(TB) leukemia, 191 µM; in the test on KM12 colon, 114 µM. For the same molecule, the TGI with HCT-116 colon was found to be 49.9 µM; in the test on MCF7 breast it was 129 µM.

Take `NC(=S)N/N=C/c1nccc2ccccc12`: the TGI is 13.6 µM in the test on SNB-75 CNS; 3.42 µM with UO-31 renal; 3.41 µM with M19-MEL melanoma; 4.23 µM with HL-60(TB) leukemia; more than 100 µM with KM12 colon; more than 100 µM with HCT-116 colon.

As to `COc1cc([C@@H]2c3cc4c(c(O)c3C[C@H]3COC(=O)[C@@H]32)OCO4)cc(OC)c1OC`, the GI50 was 0.0203 µM with SNB-75 CNS; 0.466 µM in the test with UO-31 renal; 0.000137 µM in the test with M19-MEL melanoma; 0.582 µM with HL-60(TB) leukemia; 0.104 µM in the test with KM12 colon; 0.0589 µM with HCT-116 colon. Moreover, the GI50 in the test on MCF7 breast is 0.0349 µM. Besides, the TGI in the test with 786-0 renal was 46.8 µM and > 100 µM; in the test with UO-31 renal, 56.2 µM and 120 µM and > 100 µM; in the test with P388/ADR leukemia it was 35.1 µM.
